Measured values from ChEMBL document CHEMBL4138175, “Newly designed organotin(IV) carboxylates with peptide linkage: Synthesis, structural elucidation, physicochemical characterizations and pharmacological investigations” (Eur J Med Chem, 2018).
Active and inactive are the calls of the source. No cut-off for these calls is given here.

These substances were tested on NCI-H157 (assay: Cytotoxicity against human NCI-H157 cells at 100 uM after 48 hrs by sulforhodamine B assay).
Assay type: functional

Substance	Activity
(2,2'-Bipyridine) trimethylstannyl 2-(4-methoxy-2-nitrophenylcarbamoyl)benzoate	63.2%
Dibenzylstannanediyl bis 2-(4-methoxy-2-nitrophenylcarbamoyl)benzoate	74.5%
Dibutylstannanediyl bis 2-(4-methoxy-2-nitrophenylcarbamoyl)benzoate	55.5%

Each substance was assayed on NCI-H157 (assay: Cytotoxicity against human NCI-H157 cells at 10 uM after 48 hrs by sulforhodamine B assay).
Assay type: functional

Substance	Activity
(2,2'-Bipyridine) trimethylstannyl 2-(4-methoxy-2-nitrophenylcarbamoyl)benzoate	59.9%
Dibenzylstannanediyl bis 2-(4-methoxy-2-nitrophenylcarbamoyl)benzoate	71.3%
Dibutylstannanediyl bis 2-(4-methoxy-2-nitrophenylcarbamoyl)benzoate	52.6%

What follows are substances tested on NCI-H157 (assay: Cytotoxicity against human NCI-H157 cells at 1 uM after 48 hrs by sulforhodamine B assay).
Assay type: functional

Substance	Activity
(2,2'-Bipyridine) trimethylstannyl 2-(4-methoxy-2-nitrophenylcarbamoyl)benzoate	57.8%
Dibenzylstannanediyl bis 2-(4-methoxy-2-nitrophenylcarbamoyl)benzoate	67.4%
Dibutylstannanediyl bis 2-(4-methoxy-2-nitrophenylcarbamoyl)benzoate	47.4%

These substances were tested on NCI-H157 (assay: Cytotoxicity against human NCI-H157 cells at 0.1 uM after 48 hrs by sulforhodamine B assay).
Assay type: functional

Substance	Activity
(2,2'-Bipyridine) trimethylstannyl 2-(4-methoxy-2-nitrophenylcarbamoyl)benzoate	56.7%
Dibenzylstannanediyl bis 2-(4-methoxy-2-nitrophenylcarbamoyl)benzoate	62.7%
Dibutylstannanediyl bis 2-(4-methoxy-2-nitrophenylcarbamoyl)benzoate	43.9%

Each substance was assayed on Leishmania major (assay: Antileishmanial activity against Leishmania major promastigotes at 100 uM after 72 hrs by MTT assay relative to control).
Assay type: functional

Substance	Activity
(2,2'-Bipyridine) trimethylstannyl 2-(4-methoxy-2-nitrophenylcarbamoyl)benzoate	56.6%
Dibenzylstannanediyl bis 2-(4-methoxy-2-nitrophenylcarbamoyl)benzoate	72.4%
Dibutylstannanediyl bis 2-(4-methoxy-2-nitrophenylcarbamoyl)benzoate	54.2%

Each substance was assayed on Leishmania major (assay: Antileishmanial activity against Leishmania major promastigotes at 10 uM after 72 hrs by MTT assay relative to control).
Assay type: functional

Substance	Activity
(2,2'-Bipyridine) trimethylstannyl 2-(4-methoxy-2-nitrophenylcarbamoyl)benzoate	50.9%
Dibenzylstannanediyl bis 2-(4-methoxy-2-nitrophenylcarbamoyl)benzoate	66.3%
Dibutylstannanediyl bis 2-(4-methoxy-2-nitrophenylcarbamoyl)benzoate	50.6%

Each substance was assayed on Leishmania major (assay: Antileishmanial activity against Leishmania major promastigotes at 1 uM after 72 hrs by MTT assay relative to control).
Assay type: functional

Substance	Activity
(2,2'-Bipyridine) trimethylstannyl 2-(4-methoxy-2-nitrophenylcarbamoyl)benzoate	44.3%
Dibenzylstannanediyl bis 2-(4-methoxy-2-nitrophenylcarbamoyl)benzoate	62.5%
Dibutylstannanediyl bis 2-(4-methoxy-2-nitrophenylcarbamoyl)benzoate	49.6%

These substances were tested on Leishmania major (assay: Antileishmanial activity against Leishmania major promastigotes at 0.1 uM after 72 hrs by MTT assay relative to control).
Assay type: functional

Substance	Activity
(2,2'-Bipyridine) trimethylstannyl 2-(4-methoxy-2-nitrophenylcarbamoyl)benzoate	39.2%
Dibenzylstannanediyl bis 2-(4-methoxy-2-nitrophenylcarbamoyl)benzoate	60.9%
Dibutylstannanediyl bis 2-(4-methoxy-2-nitrophenylcarbamoyl)benzoate	47.6%

The substances below were run on Klebsiella pneumoniae (assay: Antibacterial activity against Klebsiella pneumoniae assessed as zone of inhibition after 24 to 48 hrs by well diffusion method).
Assay type: functional

Substance	inhibition zone (IZ)
(2,2'-Bipyridine) trimethylstannyl 2-(4-methoxy-2-nitrophenylcarbamoyl)benzoate	inactive
Dibenzylstannanediyl bis 2-(4-methoxy-2-nitrophenylcarbamoyl)benzoate	15 mm
Dibutylstannanediyl bis 2-(4-methoxy-2-nitrophenylcarbamoyl)benzoate	26 mm

These substances were tested on Streptococcus pyogenes (assay: Antibacterial activity against Streptococcus pyogenes assessed as zone of inhibition after 24 to 48 hrs by well diffusion method).
Assay type: functional

Substance	inhibition zone (IZ)
(2,2'-Bipyridine) trimethylstannyl 2-(4-methoxy-2-nitrophenylcarbamoyl)benzoate	inactive
Dibenzylstannanediyl bis 2-(4-methoxy-2-nitrophenylcarbamoyl)benzoate	10.7 mm
Dibutylstannanediyl bis 2-(4-methoxy-2-nitrophenylcarbamoyl)benzoate	6 mm

The substances below were run on Staphylococcus epidermidis (assay: Antibacterial activity against Staphylococcus epidermidis assessed as zone of inhibition after 24 to 48 hrs by well diffusion method).
Assay type: functional

Substance	inhibition zone (IZ)
(2,2'-Bipyridine) trimethylstannyl 2-(4-methoxy-2-nitrophenylcarbamoyl)benzoate	23.3 mm
Dibenzylstannanediyl bis 2-(4-methoxy-2-nitrophenylcarbamoyl)benzoate	11 mm
Dibutylstannanediyl bis 2-(4-methoxy-2-nitrophenylcarbamoyl)benzoate	15 mm

These substances were tested on Staphylococcus aureus (assay: Antibacterial activity against Staphylococcus aureus assessed as zone of inhibition after 24 to 48 hrs by well diffusion method).
Assay type: functional

Substance	inhibition zone (IZ)
(2,2'-Bipyridine) trimethylstannyl 2-(4-methoxy-2-nitrophenylcarbamoyl)benzoate	19.3 mm
Dibenzylstannanediyl bis 2-(4-methoxy-2-nitrophenylcarbamoyl)benzoate	10.7 mm
Dibutylstannanediyl bis 2-(4-methoxy-2-nitrophenylcarbamoyl)benzoate	24 mm

What follows are substances tested on Serratia marcescens (assay: Antibacterial activity against Serratia marcescens assessed as zone of inhibition after 24 to 48 hrs by well diffusion method).
Assay type: functional

Substance	inhibition zone (IZ)
(2,2'-Bipyridine) trimethylstannyl 2-(4-methoxy-2-nitrophenylcarbamoyl)benzoate	19.3 mm
Dibenzylstannanediyl bis 2-(4-methoxy-2-nitrophenylcarbamoyl)benzoate	7.66 mm
Dibutylstannanediyl bis 2-(4-methoxy-2-nitrophenylcarbamoyl)benzoate	18.3 mm

The substances below were run on Pseudomonas aeruginosa (assay: Antibacterial activity against Pseudomonas aeruginosa assessed as zone of inhibition after 24 to 48 hrs by well diffusion method).
Assay type: functional

Substance	inhibition zone (IZ)
(2,2'-Bipyridine) trimethylstannyl 2-(4-methoxy-2-nitrophenylcarbamoyl)benzoate	20.3 mm
Dibenzylstannanediyl bis 2-(4-methoxy-2-nitrophenylcarbamoyl)benzoate	14.3 mm
Dibutylstannanediyl bis 2-(4-methoxy-2-nitrophenylcarbamoyl)benzoate	inactive

What follows are substances tested on Escherichia coli (assay: Antibacterial activity against Escherichia coli assessed as zone of inhibition after 24 to 48 hrs by well diffusion method).
Assay type: functional

Substance	inhibition zone (IZ)
(2,2'-Bipyridine) trimethylstannyl 2-(4-methoxy-2-nitrophenylcarbamoyl)benzoate	17.7 mm
Dibenzylstannanediyl bis 2-(4-methoxy-2-nitrophenylcarbamoyl)benzoate	9 mm
Dibutylstannanediyl bis 2-(4-methoxy-2-nitrophenylcarbamoyl)benzoate	19.3 mm

These substances were tested on Klebsiella pneumoniae (assay: Antibacterial activity against Klebsiella pneumoniae assessed as zone of inhibition by measuring activity index after 24 to 48 hrs by well diffusion method relative to tetracycline).
Assay type: functional, organism-based

Substance	Activity index
Dibenzylstannanediyl bis 2-(4-methoxy-2-nitrophenylcarbamoyl)benzoate	1.07
Dibutylstannanediyl bis 2-(4-methoxy-2-nitrophenylcarbamoyl)benzoate	1.88

These substances were tested on Klebsiella pneumoniae (assay: Antibacterial activity against Klebsiella pneumoniae assessed as zone of inhibition by measuring activity index after 24 to 48 hrs by well diffusion method relative to penicillin G).
Assay type: functional, organism-based

Substance	Activity_index
(2,2'-Bipyridine) trimethylstannyl 2-(4-methoxy-2-nitrophenylcarbamoyl)benzoate	inactive

Each substance was assayed on Klebsiella pneumoniae (assay: Antibacterial activity against Klebsiella pneumoniae assessed as zone of inhibition by measuring activity index after 24 to 48 hrs by well diffusion method relative to ampicillin).
Assay type: functional, organism-based

Substance	Activity index
Dibenzylstannanediyl bis 2-(4-methoxy-2-nitrophenylcarbamoyl)benzoate	2.5
Dibutylstannanediyl bis 2-(4-methoxy-2-nitrophenylcarbamoyl)benzoate	4.34

These substances were tested on Klebsiella pneumoniae (assay: Antibacterial activity against Klebsiella pneumoniae assessed as zone of inhibition by measuring activity index after 24 to 48 hrs by well diffusion method relative to amoxicillin).
Assay type: functional, organism-based

Substance	Activity index
Dibenzylstannanediyl bis 2-(4-methoxy-2-nitrophenylcarbamoyl)benzoate	2.5
Dibutylstannanediyl bis 2-(4-methoxy-2-nitrophenylcarbamoyl)benzoate	4.34

These substances were tested on Streptococcus pyogenes (assay: Antibacterial activity against Streptococcus pyogenes assessed as zone of inhibition by measuring activity index after 24 to 48 hrs by well diffusion method relative to tetracycline).
Assay type: functional, organism-based

Substance	Activity_index
(2,2'-Bipyridine) trimethylstannyl 2-(4-methoxy-2-nitrophenylcarbamoyl)benzoate	inactive

Each substance was assayed on Streptococcus pyogenes (assay: Antibacterial activity against Streptococcus pyogenes assessed as zone of inhibition by measuring activity index after 24 to 48 hrs by well diffusion method relative to penicillin G).
Assay type: functional, organism-based

Substance	Activity_index
(2,2'-Bipyridine) trimethylstannyl 2-(4-methoxy-2-nitrophenylcarbamoyl)benzoate	inactive

What follows are substances tested on Streptococcus pyogenes (assay: Antibacterial activity against Streptococcus pyogenes assessed as zone of inhibition by measuring activity index after 24 to 48 hrs by well diffusion method relative to ampicillin).
Assay type: functional, organism-based

Substance	Activity_index
(2,2'-Bipyridine) trimethylstannyl 2-(4-methoxy-2-nitrophenylcarbamoyl)benzoate	inactive

Each substance was assayed on Streptococcus pyogenes (assay: Antibacterial activity against Streptococcus pyogenes assessed as zone of inhibition by measuring activity index after 24 to 48 hrs by well diffusion method relative to amoxicillin).
Assay type: functional, organism-based

Substance	Activity_index
(2,2'-Bipyridine) trimethylstannyl 2-(4-methoxy-2-nitrophenylcarbamoyl)benzoate	inactive

These substances were tested on Staphylococcus epidermidis (assay: Antibacterial activity against Staphylococcus epidermidis assessed as zone of inhibition by measuring activity index after 24 to 48 hrs by well diffusion method relative to tetracycline).
Assay type: functional, organism-based

Substance	Activity index
(2,2'-Bipyridine) trimethylstannyl 2-(4-methoxy-2-nitrophenylcarbamoyl)benzoate	2.33
Dibenzylstannanediyl bis 2-(4-methoxy-2-nitrophenylcarbamoyl)benzoate	1.1
Dibutylstannanediyl bis 2-(4-methoxy-2-nitrophenylcarbamoyl)benzoate	1.5

Each substance was assayed on Staphylococcus epidermidis (assay: Antibacterial activity against Staphylococcus epidermidis assessed as zone of inhibition by measuring activity index after 24 to 48 hrs by well diffusion method relative to amoxicillin).
Assay type: functional, organism-based

Substance	Activity index
(2,2'-Bipyridine) trimethylstannyl 2-(4-methoxy-2-nitrophenylcarbamoyl)benzoate	11.7
Dibenzylstannanediyl bis 2-(4-methoxy-2-nitrophenylcarbamoyl)benzoate	5.5
Dibutylstannanediyl bis 2-(4-methoxy-2-nitrophenylcarbamoyl)benzoate	7.5

These substances were tested on Serratia marcescens (assay: Antibacterial activity against Serratia marcescens assessed as zone of inhibition by measuring activity index after 24 to 48 hrs by well diffusion method relative to penicillin G).
Assay type: functional

Substance	Activity index
(2,2'-Bipyridine) trimethylstannyl 2-(4-methoxy-2-nitrophenylcarbamoyl)benzoate	2.42
Dibenzylstannanediyl bis 2-(4-methoxy-2-nitrophenylcarbamoyl)benzoate	0.96
Dibutylstannanediyl bis 2-(4-methoxy-2-nitrophenylcarbamoyl)benzoate	2.29

These substances were tested on Serratia marcescens (assay: Antibacterial activity against Serratia marcescens assessed as zone of inhibition by measuring activity index after 24 to 48 hrs by well diffusion method relative to ampicillin).
Assay type: functional

Substance	Activity index
(2,2'-Bipyridine) trimethylstannyl 2-(4-methoxy-2-nitrophenylcarbamoyl)benzoate	2.42
Dibenzylstannanediyl bis 2-(4-methoxy-2-nitrophenylcarbamoyl)benzoate	0.96
Dibutylstannanediyl bis 2-(4-methoxy-2-nitrophenylcarbamoyl)benzoate	2.29

The substances below were run on Serratia marcescens (assay: Antibacterial activity against Serratia marcescens assessed as zone of inhibition by measuring activity index after 24 to 48 hrs by well diffusion method relative to amoxicillin).
Assay type: functional

Substance	Activity index
(2,2'-Bipyridine) trimethylstannyl 2-(4-methoxy-2-nitrophenylcarbamoyl)benzoate	3.22
Dibenzylstannanediyl bis 2-(4-methoxy-2-nitrophenylcarbamoyl)benzoate	1.28
Dibutylstannanediyl bis 2-(4-methoxy-2-nitrophenylcarbamoyl)benzoate	3.05

These substances were tested on Pseudomonas aeruginosa (assay: Antibacterial activity against Pseudomonas aeruginosa assessed as zone of inhibition by measuring activity index after 24 to 48 hrs by well diffusion method relative to tetracycline).
Assay type: functional, organism-based

Substance	Activity index
(2,2'-Bipyridine) trimethylstannyl 2-(4-methoxy-2-nitrophenylcarbamoyl)benzoate	3.39
Dibenzylstannanediyl bis 2-(4-methoxy-2-nitrophenylcarbamoyl)benzoate	2.39

Each substance was assayed on Pseudomonas aeruginosa (assay: Antibacterial activity against Pseudomonas aeruginosa assessed as zone of inhibition by measuring activity index after 24 to 48 hrs by well diffusion method relative to penicillin G).
Assay type: functional, organism-based

Substance	Activity index
(2,2'-Bipyridine) trimethylstannyl 2-(4-methoxy-2-nitrophenylcarbamoyl)benzoate	3.39
Dibenzylstannanediyl bis 2-(4-methoxy-2-nitrophenylcarbamoyl)benzoate	2.39

These substances were tested on Pseudomonas aeruginosa (assay: Antibacterial activity against Pseudomonas aeruginosa assessed as zone of inhibition by measuring activity index after 24 to 48 hrs by well diffusion method relative to ampicillin).
Assay type: functional, organism-based

Substance	Activity_index
Dibutylstannanediyl bis 2-(4-methoxy-2-nitrophenylcarbamoyl)benzoate	inactive

The substances below were run on Pseudomonas aeruginosa (assay: Antibacterial activity against Pseudomonas aeruginosa assessed as zone of inhibition by measuring activity index after 24 to 48 hrs by well diffusion method relative to amoxicillin).
Assay type: functional, organism-based

Substance	Activity index
(2,2'-Bipyridine) trimethylstannyl 2-(4-methoxy-2-nitrophenylcarbamoyl)benzoate	3.39
Dibenzylstannanediyl bis 2-(4-methoxy-2-nitrophenylcarbamoyl)benzoate	2.39

Each substance was assayed on Escherichia coli (assay: Antibacterial activity against Escherichia coli assessed as zone of inhibition by measuring activity index after 24 to 48 hrs by well diffusion method relative to tetracycline).
Assay type: functional

Substance	Activity index
(2,2'-Bipyridine) trimethylstannyl 2-(4-methoxy-2-nitrophenylcarbamoyl)benzoate	8.83
Dibenzylstannanediyl bis 2-(4-methoxy-2-nitrophenylcarbamoyl)benzoate	4.5
Dibutylstannanediyl bis 2-(4-methoxy-2-nitrophenylcarbamoyl)benzoate	9.67

These substances were tested on DNA (assay: Binding affinity to single-stranded DNA (unknown origin) after 10 mins by UV-visible spectrometric method).
Assay type: nucleic-acid assay

Substance	K
(2,2'-Bipyridine) trimethylstannyl 2-(4-methoxy-2-nitrophenylcarbamoyl)benzoate	1.2 ×10⁴ /M

These substances were tested on NCI-H157 (assay: Cytotoxicity against human NCI-H157 cells after 48 hrs by sulforhodamine B assay).
Assay type: functional, cell-based

Substance	Activity
(2,2'-Bipyridine) trimethylstannyl 2-(4-methoxy-2-nitrophenylcarbamoyl)benzoate	Dose-dependent effect
Dibenzylstannanediyl bis 2-(4-methoxy-2-nitrophenylcarbamoyl)benzoate	Dose-dependent effect
Dibutylstannanediyl bis 2-(4-methoxy-2-nitrophenylcarbamoyl)benzoate	Dose-dependent effect

What follows are substances tested on DNA (assay: Binding affinity to single-stranded DNA (unknown origin) assessed as red shift up to 72 uM after 10 mins by UV-visible spectrometric method).
Assay type: nucleic-acid assay

Substance	Activity
(2,2'-Bipyridine) trimethylstannyl 2-(4-methoxy-2-nitrophenylcarbamoyl)benzoate	< 3 nm
